Test results taken from US20130158014A1, “METHOD FOR TREATING DISEASES ASSOCIATED WITH ALTERATIONS IN CELLULAR INTEGRITY USING RHO KINASE INHIBITOR COMPOUNDS” (priority 2008, published 2013).

Tests used:
LPS-challenged mice [1] = test: LPS-induced cytokine production assay (IL-1β in BALF); format: in vivo, mouse; details: intratracheal, one hour prior to LPS challenge; BALF four hours after; FIG. 13
Procedure: (§1) Male BALB/c mice, approximately 19 to 21 grams, were ordered from Charles River Laboratories (Raleigh, N.C.). All animals were challenged with aerosolized LPS (10 μg/ml) for 25 minutes on study day 0. LPS aerosol was generated using an Aerogen Aeroneb nebulizer and controller providing a flow of 400 μl/min and a particle size of 2-4 μm MMAD. Rolipram was administered i.p at 20 mg/kg. […] Total cell counts were determined using the Coulter Counter. For differential evaluations, BALF was centrifuged and cytospin slides prepared and stained […]. Manual leukocyte counts were then completed on 200 cells. The final concentration of individual leukocyte cell types per ml of BALF was determined by multiplication of the relative percentage of individual leukocytes with the total amount of cells/ml of BALF fluid. The concentration of IL-1β in the BALF samples was determined using commercially available Bio-plex kits (Bio-Rad).

LPS-challenged mice [2] = test: LPS-induced neutrophilia assay; format: in vivo, mouse; details: intratracheal 0.5-50 μmol/kg one hour prior to LPS challenge; BALF four hours after; FIG. 12
Procedure: as §1

[3] = test system: ova-sensitized, ova-challenged mice; test: Prevention of airway hyperreactivity (Penh, methacholine) in mouse ovalbumin model; format: in vivo
Procedure: The anti-inflammatory dosing paradigm consists of dosing the animals once a day starting on day 27 and finishing on either day 30 or 31 (1 hr prior to the aerosolized ovalbumin challenges on days 28 to 30) but not on day 32 when hyperreactivity evaluation occurs. […] Exposure to the methacholine doses consisted of a 3 minute period during which a nebulizer was aerosolizing the methacholine and an additional 3 minute period following the cessation of nebulization. […] Enhanced pause (Penh), a unitless index of airway hyperreactivity, is derived from the expiratory side of the respiratory waveform measured via the plethysmograph and is used as an indirect measure of airway resistance and hyperreactivity. […] Following the methacholine dose response, BALF was collected and all animals were anesthetized, bled and euthanized. […] The Penh value at each of the dose levels of methacholine represents the 6-minute average response. Change from baseline (CFB) in Penh was calculated at each methacholine dose and the area under the curve (AUC) for these CFB values was calculated using the trapezoidal rule. This same approach was applied for each mouse across multiple experiments. […] Data from equal experimental conditions across experiments performed on different days were pooled for statistical analysis and data reporting. […] A random intercept for each experiment was assumed to account for possible similarities of the results obtained from a given experiment (i.e., as a “blocking effect”). […] For FIG. 9, linear AUC values from compound treated mice were reported as a percent of linear AUC values from vehicle-treated ovalbumin-sensitized/ovalbumin-challenged (asthmatic) mice.

[4] = Rat oral pharmacokinetics (plasma); format: in vivo; details: rat oral PK, mean n = 3 rats, 20-30 μmmol/kg
Procedure: Plasma (EDTA K2 anticoagulant) was collected from male, cannulated, CD Sprague Dawley rats to determine the pharmacokinetics of formulations containing compound inhibitors of Rho kinase. Each animal was dosed orally with a 4 ml/kg solution or suspension of each test compound in 10 mM acetate buffered saline, pH 4.5 at a final concentration range of 20-30 μmmol/kg. Blood was collected at 0.25, 0.5, 1, 2, 4, 6, 8, and 24 hours. Plasma samples were assayed for the concentration of the test compound using an on-line, solid phase extraction LC/MS/MS analysis system.
Samples were analyzed on a QSTAR Elite, hybrid quadrupole time-of-flight mass spectrometer (Applied Biosystems, Framingham, Mass.) coupled with a Symbiosis Pharma integrated, on-line SPE-HPLC system (Spark Holland Inc., Plainsboro, N.J.). Analyst QS 2.0 software was used for instrument control, data acquisition and processing. […] Mobile Phase A consisted of 0.1% ammonium hydroxide in water and Mobile Phase B consisted of 0.1% formic acid in acetonitrile. Pharmacokinetic analyses were performed using WinNonlin software version 5.2 (Pharsight Corporation, Mountain View, Calif.).
As determined from the plasma concentration versus time curves, the time to peak and peak exposure are represented by the values Tmax and Cmax, respectively. The AUC values (nM*hr) shown were calculated as the areas under the plasma concentration versus time curves from time zero through the time of the last observable value and represent the total exposure of the compound over the course of the study. Half-life values or the amount of time required for the plasma levels of the compound to decline to half the initial value are represented as t1/2.

[5] = test system: ova-sensitized, ova-challenged mice; test: Mouse ovalbumin sensitization model: eosinophils in BALF; format: in vivo
Procedure: (§2) Male BALB/c mice were ordered from Charles River Laboratories (Raleigh, N.C.). The animals were approximately 19 to 21 grams at time of receipt. Upon arrival, the animals were randomized into groups of five males per cage and assigned to a dosing group. Animals were quarantined for 7 days under test conditions. They were observed daily for general health status and ability to adapt to the water bottles. Animals were sensitized on day 0 and 14 of study by an intraperitoneal injection with 20 μg of ovalbumin (ova) and 2.0 mg aluminum hydroxide (alum) which initiates the development of a specific T-helper (Th) cells type 2 resulting in asthmatic animals (denoted as Ova in the figures). One group of animals received an injection of saline to use as control animals (denoted as normal in the figures). All animals were challenged with aerosolized 1% ova once daily for 25 minutes on days 28, 29, and 30 (Zosky, et al. Respiratory Research. 2004; 5:15). Aerosol challenge consists of using an Aerogen Aeroneb nebulizer and controller with a particle size of 4-6 μm mass median aerodynamic diameter (MMAD) with a distribution of 400 μl per minute. This aerosol challenge is necessary to target the Th2-driven allergic inflammation in the lower airways. […]
(§3) Bronchoalveolar lavage fluid (BALF) was collected by infusing 3.0 ml of saline with 10% fetal calf serum into the lungs via the trachea and then withdrawing the fluid. The total amount of cells/ml of BALF fluid was determined via manual cell count on hemocytometer. The BALF was centrifuged, supernatant removed and analyzed for cytokine concentrations as described below, and cell pellet reconstituted in 500 μL of fluid. […] Following Hema3 stain, relative percentages of individual leukocytes were determined on a 200 cell count for each sample. The final concentration of individual leukocyte cell types per ml of BALF was determined by multiplication of the relative percentage of individual leukocytes with the total amount of cells/ml of BALF fluid.

[6] = test system: ova-sensitized, ova-challenged mice; test: Mouse ovalbumin sensitization model: cytokines (IL-5, Eotaxin, IL-13) in BALF; format: in vivo; details: oral on days 27 to 31
Procedure: as §2, with “5:15).” for “5:15). Aerosol challenge consists of using an Aerogen Aeroneb nebulizer and controller with a particle size of 4-6 μm mass median aerodynamic diameter (MMAD) with a distribution of 400 μl per minute. This aerosol challenge is necessary to target the Th2-driven allergic inflammation in the lower airways.”
as §3
The concentrations of cytokines in the BALF samples were determined using commercially available Bio-plex kits (Bio-Rad) for the detection of mouse IL-5, IL-13, and Eotaxin. The analysis of cytokine levels was measured using the Bio-Plex 200 (Bio-Rad) system according to the manufacturer's instructions.

murine eosinophils = test: Murine eosinophil chemotaxis (eotaxin-induced); format: cell-based, mouse; details: 10 nM eotaxin challenge, one hour; FIG. 10
Procedure: Bronchoalveolar lavage was collected from ovalbumin sensitized and challenged mice in a volume of 2.5 mL lavage buffer. The lavage buffer was 0.9% saline with 10% fetal bovine serum. The pooled lavages were maintained on ice until use. The murine eosinophils were isolated using MACS cell separation (Miltenyi Biotech) by depletion of B cells and T cells by positive selection following incubation with antibody conjugated magnetic beads specific for CD45-R (B220) and CD90 (Thy 1.2), which bind B cells and T cells, respectively.
Eosinophil chemotaxis was assessed using a modified Boyden Chamber (Neuroprobe, 96-well) with a 5 μm pore membrane. The ability of the tested compounds to block chemotaxis induced by a 10 nM eotaxin challenge (mouse) or 1 nM eotaxin challenge (human) during one hour incubation at 37° C. with 5% CO2 was assessed. Chemotaxis was quantified via microscopy by counting the number of migrated cells in at least 3 view fields per treatment. […] FIG. 11 demonstates that chemotaxis was induced by eotaxin in human eosinophils.

human eosinophils = test: Human eosinophil chemotaxis (eotaxin-induced); format: cell-based; details: 1 nM eotaxin challenge, one hour; FIG. 11
Source text: Peripheral blood from healthy human volunteers was collected and the PMNs separated via Ficoll-paque density centrifugation followed by hypotonic lysis of the red blood cells. Subsequently, the human eosinophils were isolated from the cell suspension via StemCell Technologies Human Eosinophil Enrichment kit (Cat. No 19256) according to the manufacturer's recommendations. Briefly, unwanted cells were specifically labeled with dextran-coated magnetic nanoparticles using bispecific Tetrameric Antibody Complexes (TAC) directed against cell surface antigens on human blood cells: […] The unwanted cells are then separated from the unlabelled eosinophils using the EasySep® magnetic isolation procedure. […] FIG. 11 demonstates that chemotaxis was induced by eotaxin in human eosinophils.

Compound | IL-1β in BALF (LPS-challenged mice [1]) | pulmonary neutrophilia influx (LPS-challenged mice [2]) | airway hyperreactivity ([3]; intratracheal once a day, days 27 to 30, FIG. 9) | AUC (0-last) [4] | Cmax [4] | Tmax [4] | Vz_F [4] | t½ [4] | eosinophils in BALF ([5]; dosed i.t. once a day, day 27 to day 30, FIG. 5) | concentration of IL-5 in BALF ([6]; FIG. 6) | concentration of Eotaxin in BALF ([6]; FIG. 7) | concentration of IL-13 in BALF ([6]; FIG. 8) | murine eosinophil chemotactic response (murine eosinophils) | human eosinophil chemotactic response (human eosinophils) | airway hyperreactivity to methacholine on Day 32 ([3]; oral 15 μMol/kg once a day, days 27 to 31) | eosinophils per ml of BALF ([5]; dosed orally once a day, day 27 to day 31, FIG. 4)
CS(=O)(=O)Nc1cccc(CN2CCC[C@H](Nc3ccc4[nH]ncc4c3)C2)c1 [Compound 1.091] | reduction | significant reduction | prevention of airway hyperreactivity | BLQ | BLQ | BLQ | BLQ | BLQ | reduction of eosinophils |  |  |  |  |  |  | 
CS(=O)(=O)Nc1cccc(CN2CC[C@@H](Nc3cccc4cnccc34)C2)c1 [Compound 2.038] |  |  |  |  |  |  |  |  |  | reduced levels | reduced levels | reduced levels | inhibited | inhibited | prevention of airway hyperreactivity | reduced
